Source: US20250129430A1, “HIGH ATP-AFFINITY PROTEIN AS THERAPEUTIC TARGET FOR INTRACTABLE CANCER MOLECULAR SUBTYPES AND INHIBITOR THEREOF” (VeraVerse Co., Ltd., priority 2021, published 2025)

Legend:
Experiment in all cases: Cell viability drug screen, 12-point dose-response AUC
Assay type in all cases: cell-based, human
MKN45 = settings: 72 hours; for Average Area Under the Viability Curve (AUC), AUC norm value: MKN45 cells (non-SEM subtype)
How it was run: (§1)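 Gastric cancer lines seeded 5×10^3 cells/well, dosed after 24 h with half-log 12-point compound dilutions (DMSO 0.5% control), then 72 h at 37 °C. Viability by luminescence, normalized to DMSO; AUC by trapezoidal method, averaged over repeats.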

MKN74 = MKN74 cells, 72 hours
How it was run: as §1

NCC19 = NCC19 cells, 72 hours
How it was run: (§2)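 Each cell line receives a twelve-point half-log titration of drug beginning 24 h after plating 5×10^3 cells per well. Following 72 h culture at 37 °C, luminescent signal is recorded and expressed versus vehicle. AUC is derived by the trapezoidal method.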

AGS = settings: 72 hours; for Average Area Under the Viability Curve (AUC), AUC norm value: AGS cells (non-SEM subtype)
How it was run: as §1

SNU216 = settings: 72 hours; for Average Area Under the Viability Curve (AUC), AUC norm value: SNU216 cells (non-SEM subtype)
How it was run: as §1

Hs746T = settings: 72 hours; for Average Area Under the Viability Curve (AUC), AUC norm value: Hs746T cells (SEM subtype)
How it was run: as §2

SNU1967 = SNU1967 cells, 72 hours
How it was run: as §2

SNU16 = SNU16 cells, 72 hours
How it was run: as §2

SNU668 = settings: 72 hours; for Average Area Under the Viability Curve (AUC), AUC norm value: SNU668 cells (SEM subtype)
How it was run: as §2

NCC24 = NCC24 cells, 72 hours
How it was run: as §2

OCUM1 = OCUM1 cells, 72 hours
How it was run: as §2

MKN1 = MKN1 cells, 72 hours
How it was run: as §2

SNU601 = SNU601 cells, 72 hours
How it was run: as §2

SNU719 = SNU719 cells, 72 hours
How it was run: as §1

NCC20 = NCC20 cells, 72 hours
How it was run: as §2

SNU1750 = settings: 72 hours; for Average Area Under the Viability Curve (AUC), AUC norm value: SNU1750 cells (SEM subtype)
How it was run: as §2

SNU638 = SNU638 cells, 72 hours
How it was run: as §2

KATO3 = KATO3 cells, 72 hours
How it was run: as §2

SNU1 = SNU1 cells, 72 hours
How it was run: as §2

YCC3 = YCC3 cells, 72 hours
How it was run: as §2

YCC2 = YCC2 cells, 72 hours
How it was run: as §2

NCI_N87 = NCI_N87 cells, 72 hours
How it was run: as §2

SNU484 = settings: 72 hours; for Average Area Under the Viability Curve (AUC), AUC norm value: SNU484 cells (SEM subtype)
How it was run: as §2

MKN28 = MKN28 cells, 72 hours
How it was run: as §2

YCC11 = settings: 72 hours; for Average Area Under the Viability Curve (AUC), AUC norm value: YCC11 cells (SEM subtype)
How it was run: as §2

NCC59 = NCC59 cells, 72 hours
How it was run: as §2

SK4 = settings: 72 hours; for Average Area Under the Viability Curve (AUC), AUC norm value: SK4 cells (SEM subtype)
How it was run: as §2

SNU620 = SNU620 cells, 72 hours
How it was run: as §2

FU97 = test system: FU97; design: Average Area Under the Viability Curve (AUC), AUC norm value: scale not given here; settings: FU97 cells, 72 hours
How it was run: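 Trapezoidal AUC of a 12-point, DMSO-normalized dose-response curve. Luminescent viability was measured after 72 h of exposure at 37° C to half-log serial dilutions (0.5% DMSO control), dosed 24 h after plating FU97 cells at 5×10^3 per well.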

Compound: C/C(=C\c1csc(C)n1)[C@@H]1C[C@@H]2O[C@@H]2CCC[C@H](C)[C@H](O)[C@@H](C)C(=O)C(C)(C)[C@@H](O)CC(=O)O1 [Epothilone A]
- area under the viability curve (AUC), normalized (MKN45; MKN45 cells, 12-point dose-response): 0.6604
- area under the viability curve (AUC), normalized (MKN74; 12-point dose-response): 0.2913
- area under the viability curve (AUC), normalized (NCC19; 12-point dose-response): 0
- area under the viability curve (AUC), normalized (AGS; AGS cells, 12-point dose-response): −1.655
- area under the viability curve (AUC), normalized (SNU216; SNU216 cells, 12-point dose-response): 2.403
- area under the viability curve (AUC), normalized (Hs746T; Hs746T cells, 12-point dose-response): 1.217
- area under the viability curve (AUC), normalized (SNU1967; 12-point dose-response): 0.6477
- area under the viability curve (AUC), normalized (SNU16; 12-point dose-response): −1.12
- area under the viability curve (AUC), normalized (SNU668; SNU668 cells, 12-point dose-response): −0.2909
- area under the viability curve (AUC), normalized (NCC24; 12-point dose-response): −1.8431
- area under the viability curve (AUC), normalized (OCUM1; 12-point dose-response): 1.699
- area under the viability curve (AUC), normalized (MKN1; 12-point dose-response): −1.14
- area under the viability curve (AUC), normalized (SNU601; 12-point dose-response): −0.2006
- area under the viability curve (AUC), normalized (SNU719; 12-point dose-response): 4.484
- area under the viability curve (AUC), normalized (NCC20; 12-point dose-response): −0.5459
- area under the viability curve (AUC), normalized (SNU1750; SNU1750 cells, 12-point dose-response): 1.039
- area under the viability curve (AUC), normalized (SNU638; 12-point dose-response): 0.3118
- area under the viability curve (AUC), normalized (KATO3; 12-point dose-response): 4.761
- area under the viability curve (AUC), normalized (SNU1; 12-point dose-response): −1.75
- area under the viability curve (AUC), normalized (YCC3; 12-point dose-response): 2.8742
- area under the viability curve (AUC), normalized (YCC2; 12-point dose-response): 0.1784
- area under the viability curve (AUC), normalized (NCI_N87; 12-point dose-response): −1.51
- area under the viability curve (AUC), normalized (SNU484; SNU484 cells, 12-point dose-response): −0.4364
- area under the viability curve (AUC), normalized (MKN28; 12-point dose-response): −1.4393
- area under the viability curve (AUC), normalized (YCC11; YCC11 cells, 12-point dose-response): −1.2702
- area under the viability curve (AUC), normalized (NCC59; 12-point dose-response): 3.583
- area under the viability curve (AUC), normalized (SK4; SK4 cells, 12-point dose-response): −0.9541
- area under the viability curve (AUC), normalized (SNU620; 12-point dose-response): −2.268
- area under the viability curve (AUC), normalized (FU97; 12-point dose-response): 0.9454

Compound: Nc1nc(F)nc2c1ncn2[C@@H]1O[C@H](COP(=O)(O)O)[C@@H](O)[C@@H]1O [Fludarabine Phosphate (Fludara), Fludarabine Phosphate]
- Average Area Under the Viability Curve (AUC), AUC norm value (MKN45): −1.029
- Average Area Under the Viability Curve (AUC), AUC norm value (MKN74): −0.1731
- Average Area Under the Viability Curve (AUC), AUC norm value (NCC19): 2.411
- Average Area Under the Viability Curve (AUC), AUC norm value (AGS): −2.783
- Average Area Under the Viability Curve (AUC), AUC norm value (SNU216): 1.771
- Average Area Under the Viability Curve (AUC), AUC norm value (Hs746T): 1.97
- Average Area Under the Viability Curve (AUC), AUC norm value (SNU1967): 2.186
- Average Area Under the Viability Curve (AUC), AUC norm value (SNU16): −0.44
- Average Area Under the Viability Curve (AUC), AUC norm value (SNU668): −1.511
- Average Area Under the Viability Curve (AUC), AUC norm value (NCC24): 1.037
- Average Area Under the Viability Curve (AUC), AUC norm value (OCUM1): −0.3967
- Average Area Under the Viability Curve (AUC), AUC norm value (MKN1): 0.9748
- Average Area Under the Viability Curve (AUC), AUC norm value (SNU601): −0.5439
- Average Area Under the Viability Curve (AUC), AUC norm value (SNU719): 2.046
- Average Area Under the Viability Curve (AUC), AUC norm value (NCC20): −2.507
- Average Area Under the Viability Curve (AUC), AUC norm value (SNU1750): 1.972
- Average Area Under the Viability Curve (AUC), AUC norm value (SNU638): 0.5006
- Average Area Under the Viability Curve (AUC), AUC norm value (KATO3): 1.165
- Average Area Under the Viability Curve (AUC), AUC norm value (SNU1): −0.7644
- Average Area Under the Viability Curve (AUC), AUC norm value (YCC3): 0
- Average Area Under the Viability Curve (AUC), AUC norm value (YCC2): −0.7765
- Average Area Under the Viability Curve (AUC), AUC norm value (NCI_N87): −0.06169
- Average Area Under the Viability Curve (AUC), AUC norm value (SNU484): 1.309
- Average Area Under the Viability Curve (AUC), AUC norm value (MKN28): 0.00328
- Average Area Under the Viability Curve (AUC), AUC norm value (YCC11): −0.6417
- Average Area Under the Viability Curve (AUC), AUC norm value (NCC59): 1.479
- Average Area Under the Viability Curve (AUC), AUC norm value (SK4): −1.653
- Average Area Under the Viability Curve (AUC), AUC norm value (SNU620): −2.289
- Average Area Under the Viability Curve (AUC), AUC norm value (FU97): 2.928

Compound: Nc1ccn([C@@H]2O[C@H](CO)[C@@H](O)C2(F)F)c(=O)n1 [Gemcitabine (Gemzar), Gemcitabine]
- Average Area Under the Viability Curve (AUC), AUC norm value (MKN45): 1.053
- Average Area Under the Viability Curve (AUC), AUC norm value (MKN74): −1.402
- Average Area Under the Viability Curve (AUC), AUC norm value (NCC19): 1.697
- Average Area Under the Viability Curve (AUC), AUC norm value (AGS): −2.364
- Average Area Under the Viability Curve (AUC), AUC norm value (SNU216): 1.837
- Average Area Under the Viability Curve (AUC), AUC norm value (Hs746T): 1.71
- Average Area Under the Viability Curve (AUC), AUC norm value (SNU1967): −4.705
- Average Area Under the Viability Curve (AUC), AUC norm value (SNU16): 0.514
- Average Area Under the Viability Curve (AUC), AUC norm value (SNU668): −1.312
- Average Area Under the Viability Curve (AUC), AUC norm value (NCC24): −1.1
- Average Area Under the Viability Curve (AUC), AUC norm value (OCUM1): −1.402
- Average Area Under the Viability Curve (AUC), AUC norm value (MKN1): −0.9169
- Average Area Under the Viability Curve (AUC), AUC norm value (SNU601): 0.2471
- Average Area Under the Viability Curve (AUC), AUC norm value (SNU719): 3.628
- Average Area Under the Viability Curve (AUC), AUC norm value (NCC20): −0.9089
- Average Area Under the Viability Curve (AUC), AUC norm value (SNU1750): 0
- Average Area Under the Viability Curve (AUC), AUC norm value (SNU638): −2.404
- Average Area Under the Viability Curve (AUC), AUC norm value (KATO3): 4.1466
- Average Area Under the Viability Curve (AUC), AUC norm value (SNU1): −0.3367
- Average Area Under the Viability Curve (AUC), AUC norm value (YCC3): 0.1853
- Average Area Under the Viability Curve (AUC), AUC norm value (YCC2): 0.1111
- Average Area Under the Viability Curve (AUC), AUC norm value (NCI_N87): 1.33
- Average Area Under the Viability Curve (AUC), AUC norm value (SNU484): −0.2757
- Average Area Under the Viability Curve (AUC), AUC norm value (MKN28): 1.089
- Average Area Under the Viability Curve (AUC), AUC norm value (YCC11): −1.649
- Average Area Under the Viability Curve (AUC), AUC norm value (NCC59): 3.024
- Average Area Under the Viability Curve (AUC), AUC norm value (SK4): −0.8764
- Average Area Under the Viability Curve (AUC), AUC norm value (SNU620): −1.64
- Average Area Under the Viability Curve (AUC), AUC norm value (FU97): 1.888
